{
  "source": "paper PMC9770960",
  "about": "(Science Advances, 2022)",
  "molecular_target": "T1, Rec1-resilin (Drosophila melanogaster, UniProt Q9V7U0)",
  "T1 sequence (Q9V7U0 18-322 limits assumed)": "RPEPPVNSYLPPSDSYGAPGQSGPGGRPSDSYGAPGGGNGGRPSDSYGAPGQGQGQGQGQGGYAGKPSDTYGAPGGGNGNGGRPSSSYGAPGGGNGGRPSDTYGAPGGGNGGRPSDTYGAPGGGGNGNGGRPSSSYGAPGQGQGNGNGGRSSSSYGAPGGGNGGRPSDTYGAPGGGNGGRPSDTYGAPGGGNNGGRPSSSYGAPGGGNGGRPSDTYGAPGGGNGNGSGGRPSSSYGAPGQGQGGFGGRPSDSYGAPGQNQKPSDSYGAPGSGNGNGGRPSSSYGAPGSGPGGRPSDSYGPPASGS",
  "test": "ANS fluorescence titration, Scatchard plot",
  "assay_type": "binding",
  "note": "Counter-ions that a name gives are not always drawn.",
  "data": [
    {"compound": "O=S(=O)(O)c1cccc2cccc(Nc3ccccc3)c12", "note": "[ANS, 8-anilino-1-naphthalenesulfonic acid (ammonium salt)]", "values": [
      {"measurement": "Kd", "value": 58.8, "unit": "µM"}
    ]}
  ]
}
